Experimental findings from ChEMBL document CHEMBL5729359, “Tri-substituted heteroaryl derivatives as Src homology-2 phosphatase inhibitors” (2022) are described below.

In this assay the target is T1, Tyrosine-protein phosphatase non-receptor type 11 (Homo sapiens, UniProt Q06124).
T1 sequence (Q06124 whole entry): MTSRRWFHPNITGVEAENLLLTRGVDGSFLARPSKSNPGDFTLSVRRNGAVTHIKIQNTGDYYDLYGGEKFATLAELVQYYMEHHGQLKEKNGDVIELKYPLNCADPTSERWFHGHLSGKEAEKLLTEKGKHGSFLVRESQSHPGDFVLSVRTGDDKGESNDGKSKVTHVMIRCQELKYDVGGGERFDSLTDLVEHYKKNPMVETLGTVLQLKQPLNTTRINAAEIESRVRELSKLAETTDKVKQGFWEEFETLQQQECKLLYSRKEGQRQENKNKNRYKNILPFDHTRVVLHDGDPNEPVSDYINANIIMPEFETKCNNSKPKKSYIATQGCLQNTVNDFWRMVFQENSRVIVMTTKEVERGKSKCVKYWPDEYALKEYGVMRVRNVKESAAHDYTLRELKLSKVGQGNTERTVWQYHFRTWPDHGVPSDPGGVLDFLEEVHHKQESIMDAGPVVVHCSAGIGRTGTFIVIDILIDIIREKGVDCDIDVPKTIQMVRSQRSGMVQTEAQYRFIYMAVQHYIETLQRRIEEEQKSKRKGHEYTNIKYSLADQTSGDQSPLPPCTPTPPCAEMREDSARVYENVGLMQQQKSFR
Briefly: At the basal state, SHP2 is auto-inhibited and access of substrates to the catalytic site is blocked by the […] interactions between the SH2 domains and the PTP domain. When bis-tyrosyl-phosphorylated peptides bind to SH2 domain of SHP2, the PTP domain becomes available for substrate recognition and reaction catalysis and SHP2 is allosterically activated. SHP2 catalytic activity can be measured using a fluorogenic artificial substrate DiFMUP.The phosphatase reactions were carried out at room temperature in 384-well black polystyrene plates (Greiner Bio-One, Cat #784076) using assay buffers containing 60 mM HEPES, pH 7.2, 75 mM NaCl, 75 mM KCl, 1 mM EDTA, 0.05% P-20, and 5 mM DTT.0.33 nM of […] was co-incubated with of 0.5 μM of bisphos-IRS 1 peptide (sequence: H2N-LN(pY)IDLDLV(dPEG8)LST(pY)ASINFQK-amide) and various concentrations of compounds for 30-60 min at room temperature. Then the reaction was initiated by addition of the surrogate substrate DiFMUP (Invitrogen, Cat #D6567, 100 uM final).The real-time conversion of DiFMUP to DiFMU (6,8-difluoro-7-hydroxyl-4-methyl-coumarin) was measured every 5 min for 30 min using a microplate reader (CLARIOstar, BMG Labtech) with excitation and emission wavelengths of 340 nm and 450 nm, respectively. Initial reaction rates were determined by linear fitting of the data and the inhibitor dose response curves were analyzed using normalized IC50 regression curve fitting with control based normalization.
`C[C@@H]1OCC2(CCN(c3ncc(Sc4cc(N)nc(Cl)c4Cl)nc3[S+](C)[O-])CC2)[C@@H]1N` (stereo partly specified): the IC50 (commonly the concentration that inhibits the measured activity by half) worked out at 3 nM. The result for `C[C@@H]1OCC2(CCN(c3ncc(Sc4ccnc(Cl)c4Cl)nc3[S+](C)[O-])CC2)[C@@H]1N` (stereo partly specified) reads 6 nM; that for `C[C@@H]1OCC2(CCN(c3ncc(Sc4ccnc(N)c4Cl)nc3Cl)CC2)[C@@H]1N`, 12 nM. For the compound `C[C@@H]1OCC2(CCN(c3ncc(Sc4cccnc4C(F)(F)F)nc3[S+](C)[O-])CC2)[C@@H]1N` (stereo partly specified), the IC50 was 85 nM.

`COC1CCc2[nH]c3cc(Sc4cnc(N5CCC6(CC5)CO[C@@H](C)[C@H]6N)c(CO)n4)c(Cl)nc3c2C1` (stereo partly specified): the IC50 was found to be 5.5 nM.

As to `C[C@@H]1OCC2(CCN(c3ncc(Sc4ccnc(N5CCCC5)c4Cl)nc3[S+](C)[O-])CC2)[C@@H]1N` (stereo partly specified), the IC50 was 13 nM. Turning to `C[C@@H]1OCC2(CCN(c3ncc(Sc4cc5[nH]c6c(c5nc4Cl)CC(O)CC6)nc3CO)CC2)[C@@H]1N` (stereo partly specified), the IC50 worked out at 3.5 nM.

In the case of `C[C@@H]1OCC2(CCN(c3ncc(Sc4ccnc(F)c4Cl)nc3[S+](C)[O-])CC2)[C@@H]1N` (stereo partly specified), the IC50 was found to be 21 nM. Turning to `Nc1nccc(Sc2cnc(N3CCC4(CC3)Cc3ncccc3[C@H]4N)c(CO)n2)c1Cl`, the IC50 came out at 0.6 nM. As to `COc1nccc(Sc2cnc(N3CCC4(CC3)CO[C@@H](C)[C@H]4N)c([S+](C)[O-])n2)c1Cl` (stereo partly specified), the IC50 came out at 18 nM. The same measure for `C[C@@H]1OCC2(CCN(c3ncc(Sc4cc5[nH]c6c(c5nc4Cl)CCCC6O)nc3CO)CC2)[C@@H]1N` (stereo partly specified): 4.8 nM; for `C[C@@H]1OCC2(CCN(c3ncc(Sc4ccnc(N)c4Cl)nc3[S+](C)[O-])CC2)[C@@H]1N` (stereo partly specified): 13 nM; for `Nc1nccc(Sc2cnc(N3CCC4(CC3)CCC3(CC3)C4N)c(CO)n2)c1Cl` (stereo unspecified): 3 nM.

For the compound `C[C@@H]1OCC2(CCN(c3ncc(Sc4ccnc(N)c4Cl)nc3O)CC2)[C@@H]1N`, the IC50 amounted to 13 nM.

As to `C[C@@H]1OCC2(CCN(c3ncc(Sc4ccnc(N)c4Cl)nc3CO)CC2)[C@@H]1N`, the IC50 was 0.9 nM.

In the case of `CN1C(=O)CCC12CC(N)C1(CCN(c3ncc(Sc4ccnc(N)c4Cl)nc3CO)CC1)C2` (stereo unspecified), the IC50 was 269 nM.
